For 11 compounds, TGI results are on record in PubChem BioAssay (NCI).

Some test systems named below: A498 renal; COLO 205 colon; K-562 leukemia; LOX IMVI melanoma; M14 melanoma; MALME-3M melanoma; OVCAR-8 ovarian; RXF 393 renal; SK-OV-3 ovarian; SNB-75 CNS; T-47D breast; U251 CNS; UO-31 renal.
Experiment in all cases: NCI anticancer screen, dose series, 48 h

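Cells were grown in 96-well plates and exposed to each compound for 48 hours at five concentrations; endpoints were interpolated linearly between bracketing concentrations, or set to the highest concentration if not reached. TGI: total growth inhibition.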 *1 amine or outer side, *2 acyl side, *3 side chain or, on linkers, in order; H or OH if unused. Where a SMILES comes first, the peptide text is derived from it. Bridges are numbered along the chain shown (N, C = ends). [ ]: non-standard residue; d: D form. The star is where a group is joined. ξ: configuration not given here. X34 = O=C(C(CCCCNO[*:3])N[*:1])[*:2]; Fmoc = O=C(OCC1c2ccccc2-c2ccccc21)*; ξW = NC(Cc1c[nH]c2ccccc12)C(=O)O; ξP = O=C(O)C1CCCN1

Take `Brc1ccc(CCNCCN2CCCCC2)cc1`: the TGI was 32 µM in the experiment with A498 renal; 25.6 µM in the experiment with COLO 205 colon; more than 100 µM in the experiment with K-562 leukemia; 27.6 µM in the experiment on LOX IMVI melanoma; 29.6 µM with M14 melanoma; 31.7 µM in the experiment with MALME-3M melanoma. Also, the TGI is 30.5 µM in the experiment with OVCAR-8 ovarian; 49.8 µM with RXF 393 renal; 42 µM in the experiment on SK-OV-3 ovarian; 26.3 µM with SNB-75 CNS; 32 µM in the experiment on T-47D breast; 32.4 µM in the experiment with U251 CNS. Besides, in the experiment with UO-31 renal, the TGI amounted to 24.6 µM.
In the case of `COc1cc2c(cc1OC)C1=Cc3cc(OC)c(OC)cc3C(C)N1C=C2` (centres undefined), the TGI in the experiment on A498 renal, in the experiment with COLO 205 colon, with K-562 leukemia, in the experiment with M14 melanoma, in the experiment on MALME-3M melanoma and with OVCAR-8 ovarian was more than 100 µM in each case. For the same compound, the TGI with RXF 393 renal, in the experiment on SK-OV-3 ovarian, in the experiment with SNB-75 CNS, in the experiment on T-47D breast, in the experiment on U251 CNS and in the experiment on UO-31 renal was more than 100 µM throughout.
For `COc1ccc(N2C(=O)C3c4[nH]c5ccc(OCc6ccccc6)cc5c4C4CCC(C(C)(C)C)CC4C3C2=O)cc1` (centres undefined), the TGI with A498 renal is more than 100 µM; in the experiment on COLO 205 colon, more than 100 µM; with K-562 leukemia it was more than 100 µM; with LOX IMVI melanoma, more than 100 µM; in the experiment with M14 melanoma, more than 100 µM; in the experiment on MALME-3M melanoma, 54.1 µM. For the same compound, the TGI in the experiment on OVCAR-8 ovarian was more than 100 µM; with RXF 393 renal it was more than 100 µM; with SK-OV-3 ovarian, more than 100 µM; in the experiment with T-47D breast it was 55.5 µM; in the experiment with U251 CNS, 60.4 µM.
Take `CC(=O)OCC(C)C1=C(O)C(=O)C2(C)C/C=C(/C)CC/C=C(\C)CCC(O)C(C)CCC12` (centres undefined): the TGI with A498 renal worked out at 36 µM; in the experiment on COLO 205 colon, 31.1 µM; in the experiment on K-562 leukemia, 53.4 µM; in the experiment on LOX IMVI melanoma, 33.1 µM; with M14 melanoma, 33.8 µM; in the experiment with MALME-3M melanoma it was 31.8 µM. Moreover, the TGI in the experiment on OVCAR-8 ovarian is 46.6 µM; in the experiment on RXF 393 renal, 27.4 µM; in the experiment on SNB-75 CNS, 30.5 µM; with T-47D breast, 14.9 µM; in the experiment on U251 CNS it was 30.8 µM; with UO-31 renal it was 27.2 µM.
As to `CCN(CC)CCc1c2c(nc3ccccc13)C(=O)c1cccnc1C2=O`, the TGI with A498 renal is 5.29 µM; in the experiment on COLO 205 colon it was 3.07 µM; in the experiment with K-562 leukemia it was 4.23 µM; in the experiment with LOX IMVI melanoma, 2.31 µM; with M14 melanoma it was 1.73 µM; with MALME-3M melanoma, 4.49 µM. In addition, the TGI was more than 100 µM in the experiment on OVCAR-8 ovarian; 7 µM in the experiment on RXF 393 renal; 4.22 µM with SK-OV-3 ovarian; 16.7 µM in the experiment with SNB-75 CNS; 5.31 µM with T-47D breast; 20 µM in the experiment on U251 CNS.
Take `Nc1ccc2nc(-c3ccccn3)c(-c3ccccn3)nc2c1`: the TGI with A498 renal, in the experiment on COLO 205 colon, in the experiment with K-562 leukemia, with LOX IMVI melanoma, in the experiment with M14 melanoma and in the experiment on MALME-3M melanoma was more than 100 µM in each case. Besides, the TGI in the experiment on OVCAR-8 ovarian, in the experiment with RXF 393 renal, with SNB-75 CNS, in the experiment with T-47D breast, with U251 CNS and in the experiment with UO-31 renal was more than 100 µM each time.
As to `NC(=O)CNC(=O)C1CCCN1C(=O)C1CCCCNOC(=O)CC[C@@H](NC(=O)OCC2c3ccccc3-c3ccccc32)C(=O)NC(Cc2c[nH]c3ccccc23)C(=O)N1` (some centres undefined) (Fmoc-[dE][ξW][X34][ξP]G-NH2; ester 1-3), the TGI with COLO 205 colon, in the experiment on K-562 leukemia, with LOX IMVI melanoma, with M14 melanoma, with MALME-3M melanoma and in the experiment with OVCAR-8 ovarian was more than 100 µM each time. Further, the TGI with RXF 393 renal, in the experiment with SK-OV-3 ovarian, with SNB-75 CNS, in the experiment with T-47D breast, in the experiment with U251 CNS and in the experiment on UO-31 renal was more than 100 µM each time.
With `CC1(O)CC(C(F)(F)F)(C(F)(F)F)OC1=O` (centres undefined), the TGI in the experiment on A498 renal, in the experiment with COLO 205 colon, with K-562 leukemia, in the experiment on LOX IMVI melanoma, with M14 melanoma and in the experiment on MALME-3M melanoma was more than 10 µM throughout. The TGI with OVCAR-8 ovarian, with SK-OV-3 ovarian, in the experiment with T-47D breast, in the experiment with U251 CNS and with UO-31 renal was more than 10 µM in each case.
For `O=C(O)c1cc2c(cc1CC(Cc1ccc3c(c1)CCC3)C(=O)O)CCC2` (centres undefined), the TGI in the experiment with A498 renal, in the experiment on COLO 205 colon, with LOX IMVI melanoma, in the experiment on M14 melanoma, in the experiment on MALME-3M melanoma and in the experiment on OVCAR-8 ovarian was more than 100 µM throughout. Moreover, the TGI with RXF 393 renal, in the experiment with SK-OV-3 ovarian, in the experiment on SNB-75 CNS, with T-47D breast, in the experiment with U251 CNS and with UO-31 renal was more than 100 µM each time.
For `NC(=O)N/N=C(\Cc1nc2ccc(Cl)cc2[nH]c1=O)C(=O)Nc1ccc(Cl)cc1Cl`, the TGI with A498 renal, in the experiment with COLO 205 colon, in the experiment on K-562 leukemia, in the experiment on LOX IMVI melanoma, in the experiment on M14 melanoma and in the experiment on MALME-3M melanoma was more than 100 µM in each case. Also, the TGI in the experiment with OVCAR-8 ovarian, with SK-OV-3 ovarian, with SNB-75 CNS, in the experiment with T-47D breast, in the experiment on U251 CNS and in the experiment with UO-31 renal was more than 100 µM each time.
On to `CC(C)(C)c1ccc2c(c1)CNCCNCc1cc(C(C)(C)C)ccc1OCC1(CO2)COc2ccc(C(C)(C)C)cc2CNCCNCc2cc(C(C)(C)C)ccc2OC1`, for which the TGI in the experiment with A498 renal is 2.83 µM; in the experiment with COLO 205 colon it was 2.29 µM; in the experiment with LOX IMVI melanoma, more than 100 µM; with M14 melanoma it was 1.45 µM; with MALME-3M melanoma, 2.8 µM; in the experiment with OVCAR-8 ovarian, 1.45 µM. The TGI with SNB-75 CNS came to 2.96 µM; with T-47D breast it was 3.73 µM; in the experiment on U251 CNS it was 0.479 µM; in the experiment with UO-31 renal, 3.25 µM.
